Patent publication US20200197320A1, “DRUG CARRIER AND DRUG DELIVERY SYSTEM THEREOF” (NATIONAL TSING HUA UNIVERSITY, priority 2018, published 2020)

Tested on: MDA-MB-231 human breast cancer cells
Assay: Material cytotoxicity by MTT assay
Conditions: under the condition of the present disclosure, including products after UV irradiation
Experimental: Then the drug delivery systems of Example 1 with different concentrations are tested for their cytotoxicity. […] The MDA-MB-231 human breast cancer cells are treated with 0.1, 1, 2, 5, 10 and 20 μg/mL of the drug delivery system of Example 1 for 6 hours, respectively, and then further incubated for another 24 hours. The cell viability is measured by the MTT assay.

SMILES: OCc1ccc2ccc3cccc4ccc1c2c34 [pyrenemethanol]
- harm to the cells: not harmful
